The values below come from patent publication US20250382272A1, “CRYSTALLINE FORM OF INDAZIFLAM, METHODS FOR ITS PREPARATION AND USE THEREOF” (ADAMA AGAN LTD., priority 2022, published 2025).

This data set can be described thus: Bulk and tapped density, compressibility index (USP <1174> Powder Flow) of indaziflam crystal samples. Format: physicochemical. To be noted: for Tap density: cylinder manually tapped (dropped) 50 times, ~1 second between taps; for flowability: judged from compressibility index as explained in US Pharmacopoeia method <1174> Powder Flow; for Bulk Density: sample poured into tared cylinder to 250 ml mark and weighed. Here is the method:
For purposes of sufficiency of disclosure, the “compressibility index” means in the present invention the compressibility index measured according to US Pharmacopoeia method <1174> Powder Flow, revision from 20 Jan. 2023.
Bulk and tapped density measurements are obtained by placing a sample onto a glazed paper. Then, the sample is poured into the tared cylinder until 250 ml mark is reached. The amount of sample is weighed. Rubber bung is fitted into the cylinder. Cylinder is placed in the dropping box and manually tapped (dropped) 50 times with ˜1 second time difference between taps. Compressibility index is calculated from the bulk density and the tapped density as explained in US Pharmacopoeia method <1174> Powder Flow, revision from 20 Jan. 2023.

Turning to `Cc1ccc2c(c1)[C@H](Nc1nc(N)nc([C@@H](C)F)n1)[C@@H](C)C2` [Example 2, N-[(1R,2S)-2,6-dimethyl-2,3-dihydro-1H-inden-yl]-6-[(1R)-1-fluoroethyl]-1,3-5-triazine-2,4-diamine], the Tap density was found to be 0.52 gr/ml, the flowability entry is recorded as “good flowability” and the “Bulk Density” value came out at 0.47 gr/ml.
As for `Cc1ccc2c(c1)[C@H](Nc1nc(N)nc([C@@H](C)F)n1)[C@@H](C)C2` [Comparative Example 3, N-[(1R,2S)-2,6-dimethyl-2,3-dihydro-1H-inden-yl]-6-[(1R)-1-fluoroethyl]-1,3-5-triazine-2,4-diamine, reference compound], the Tap density was found to be 0.59 gr/ml, the flowability result is given as “not good” and the “Bulk Density” value stood at 0.48 gr/ml.
As for `Cc1ccc2c(c1)[C@H](Nc1nc(N)nc([C@@H](C)F)n1)[C@@H](C)C2` [Example 1, N-[(1R,2S)-2,6-dimethyl-2,3-dihydro-1H-inden-yl]-6-[(1R)-1-fluoroethyl]-1,3-5-triazine-2,4-diamine], the Tap density is 0.65 gr/ml and the “Bulk Density” value turned out to be 0.56 gr/ml.
